In PubChem BioAssay AID1963873 (Molecular Pharmacology Branch, DTP, NCI, 2024):
pIC50: −log10 of the molar value.

Test system: 276233-004-R-J1-PDC KRAS spheroids with HUVEC/MSC, viability
Assay: Anticancer human tumor 276233-004-R-J1-PDC patient-derived colon adenocarcinoma cell line growth inhibition [KRAS2]
Conditions: for pIC50: curve of first compound; for viability, T/C: stronger effect = lower value
Procedure, shortened: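 KRAS-mutant tumor cells were grown as spheroids with HUVEC endothelial cells and human MSCs as stroma. Targeted agents were tested alone and with KRAS pathway inhibitors. Doses started at or near clinical Cmax, or 10 microM, descending half-log.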

[1] = second compound 0.1 µM, first compound 0.0316 µM
[2] = second compound 0.1 µM, first compound 0.1 µM
[3] = second compound 0.1 µM, first compound 0.316 µM
[4] = second compound 0.1 µM, first compound 1 µM
[5] = second compound 0.1 µM, first compound 3.16 µM
[6] = second compound 0.316 µM, first compound 0.0316 µM
[7] = second compound 0.316 µM, first compound 0.1 µM
[8] = second compound 0.316 µM, first compound 0.316 µM
[9] = second compound 0.316 µM, first compound 1 µM
[10] = second compound 0.316 µM, first compound 3.16 µM
[11] = second compound 1 µM, first compound 0.0316 µM
[12] = second compound 1 µM, first compound 0.1 µM
[13] = second compound 1 µM, first compound 0.316 µM
[14] = second compound 1 µM, first compound 1 µM
[15] = second compound 1 µM, first compound 3.16 µM
[16] = second compound 3.16 µM, first compound 0.0316 µM
[17] = second compound 3.16 µM, first compound 0.1 µM
[18] = second compound 3.16 µM, first compound 0.316 µM
[19] = second compound 3.16 µM, first compound 1 µM
[20] = second compound 3.16 µM, first compound 3.16 µM
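Note: cells exposed to agents for seven days before viability read.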
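Throughout, for viability, T/C: 100% = DMSO vehicle control wells and lower values mean fewer viable cells.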

| Structure (SMILES) | pIC50 (second compound 0.1 µM) | pIC50 (second compound 0.316 µM) | pIC50 (second compound 1 µM) | pIC50 (second compound 3.16 µM) | viability, T/C [1] | viability, T/C [2] | viability, T/C [3] | viability, T/C [4] | viability, T/C [5] | viability, T/C [6] | viability, T/C [7] | viability, T/C [8] | viability, T/C [9] | viability, T/C [10] | viability, T/C [11] | viability, T/C [12] | viability, T/C [13] | viability, T/C [14] | viability, T/C [15] | viability, T/C [16] | further results |
| --- | --- | --- | --- | --- | --- | --- | --- | --- | --- | --- | --- | --- | --- | --- | --- | --- | --- | --- | --- | --- | --- |
| CC1OCC2(CCN(c3cnc(Sc4ccnc(N)c4Cl)c(N)n3)CC2)C1N (stereo not given) + C=CC(=O)N1CCN(c2nc(=O)n(-c3c(C)ccnc3C(C)C)c3nc(-c4c(O)cccc4F)c(F)cc23)C(C)C1 | < 5.00 | < 5.00 | < 5.00 | < 5.00 | 93.7% | 85.8% | 82.3% | 83.7% | 71.6% | 88.7% | 103% | 81.9% | 85.9% | 67.2% | 94.7% | 97.7% | 76.2% | 87.4% | 74.2% | 98.6% | pIC50 (second compound 10 µM): < 5.00; viability, T/C (second compound 0.1 µM, first compound 10 µM): 69.9%; viability, T/C (second compound 0.316 µM, first compound 10 µM): 68%; viability, T/C (second compound 1 µM, first compound 10 µM): 55.8%; viability, T/C [17]: 96.4%; viability, T/C [18]: 88.3%; viability, T/C [19]: 81.8%; viability, T/C [20]: 63.1%; viability, T/C (second compound 3.16 µM, first compound 10 µM): 58%; viability, T/C (second compound 10 µM, first compound 0.0316 µM): 78.4%; viability, T/C (second compound 10 µM, first compound 0.1 µM): 82.4%; viability, T/C (second compound 10 µM, first compound 0.316 µM): 63.9%; viability, T/C (second compound 10 µM, first compound 1 µM): 58.3%; viability, T/C (second compound 10 µM, first compound 3.16 µM): 68.4%; viability, T/C (second compound 10 µM, first compound 10 µM): 71.8% |
| CC(=O)OC12COC1CC(O)C1(C)C(=O)C(O)C3=C(C)C(OC(=O)C(O)C(NC(=O)OC(C)(C)C)c4ccccc4)CC(O)(C(OC(=O)c4ccccc4)C21)C3(C)C (stereo not given) + C=CC(=O)N1CCN(c2nc(OCC3CCCN3C)nc3c2CCN(c2cccc4cccc(C)c24)C3)CC1CC#N | < 5.50 | < 5.50 | < 5.50 | < 5.50 | 96.3% | 76.4% | 86.8% | 91.5% | 95.5% | 83.4% | 73.6% | 72.2% | 99% | 107% | 79.3% | 75.8% | 71.3% | 93.3% | 98.2% | 87.8% | pIC50 (second compound 0.0316 µM): < 5.50; viability, T/C (second compound 0.0316 µM, first compound 0.01 µM): 82.1%; viability, T/C (second compound 0.0316 µM, first compound 0.0316 µM): 90.6%; viability, T/C (second compound 0.0316 µM, first compound 0.1 µM): 103%; viability, T/C (second compound 0.0316 µM, first compound 0.316 µM): 96%; viability, T/C (second compound 0.0316 µM, first compound 1 µM): 112%; viability, T/C (second compound 0.0316 µM, first compound 3.16 µM): 94.8%; viability, T/C (second compound 0.1 µM, first compound 0.01 µM): 96.7%; viability, T/C (second compound 0.316 µM, first compound 0.01 µM): 97.8%; viability, T/C (second compound 1 µM, first compound 0.01 µM): 84.4%; viability, T/C (second compound 3.16 µM, first compound 0.01 µM): 103%; viability, T/C [17]: 88.4%; viability, T/C [18]: 87.2%; viability, T/C [19]: 95.7%; viability, T/C [20]: 112% |
